Data published in ChEMBL document CHEMBL4118098, “Discovery of DS28120313 as a potent orally active hepcidin production inhibitor: Design and optimization of novel 4,6-disubstituted indazole derivatives” (Bioorg Med Chem Lett, 2017).

Columns and labels:
[1] = target: Protein kinase C beta type (Homo sapiens) (UniProt P05771); test: Inhibition of PKC-beta2 (unknown origin) at 0.164 uM relative to control
[2] = target: Inhibitor of nuclear factor kappa-B kinase subunit epsilon (Homo sapiens) (UniProt Q14164); test: Inhibition of IKBKE (unknown origin) at 0.164 uM relative to control
[3] = target: Tyrosine-protein kinase SYK (Homo sapiens) (UniProt P43405); test: Inhibition of SYK (unknown origin) at 0.164 uM relative to control
[4] = target: Protein kinase C theta type (Homo sapiens) (UniProt Q04759); test: Inhibition of PKC-theta (unknown origin) at 0.164 uM relative to control
[5] = target: Dual specificity tyrosine-phosphorylation-regulated kinase 2 (Homo sapiens) (UniProt Q92630); test: Inhibition of DYRK2 (unknown origin) at 0.164 uM relative to control
[6] = target: Casein kinase I isoform delta (Homo sapiens) (UniProt P48730); test: Inhibition of CK1-delta (unknown origin) at 0.164 uM relative to control
[7] = target: MAP/microtubule affinity-regulating kinase 3 (Homo sapiens) (UniProt P27448); test: Inhibition of c-TAK1 (unknown origin) at 0.164 uM relative to control
[8] = target: Homeodomain-interacting protein kinase 3 (Homo sapiens) (UniProt Q9H422); test: Inhibition of HIPK3 (unknown origin) at 0.164 uM relative to control
[9] = system: Proto-oncogene tyrosine-protein kinase receptor Ret (Homo sapiens), P07949 [V804L]; test: Inhibition of Ret V804L mutant (unknown origin) at 0.164 uM relative to control
[10] = target: MAP kinase-activated protein kinase 3 (Homo sapiens) (UniProt Q16644); test: Inhibition of MAPKAPK3 (unknown origin) at 0.164 uM relative to control
[11] = target: Serine/threonine-protein kinase 10 (Homo sapiens) (UniProt O94804); test: Inhibition of LOK (unknown origin) at 0.164 uM relative to control
[12] = target: Protein-tyrosine kinase 2-beta (Homo sapiens) (UniProt Q14289); test: Inhibition of PYK2 (unknown origin) at 0.164 uM relative to control
[13] = target: RAF proto-oncogene serine/threonine-protein kinase (Homo sapiens) (UniProt P04049); test: Inhibition of c-Raf (unknown origin) at 0.164 uM relative to control
[14] = target: Receptor-type tyrosine-protein kinase FLT3 (Homo sapiens) (UniProt P36888); test: Inhibition of FLT3 (unknown origin) at 0.164 uM relative to control
[15] = system: Tyrosine-protein kinase ABL1 (Homo sapiens), P00519 [Y253F]; test: Inhibition of ABL1 Y253F mutant (unknown origin) at 0.164 uM relative to control
[16] = target: T1, Protein kinase C iota type (Homo sapiens) (UniProt P41743); test: Inhibition of PKC-iota (unknown origin) at 0.45 uM relative to control
T1 sequence (whole entry): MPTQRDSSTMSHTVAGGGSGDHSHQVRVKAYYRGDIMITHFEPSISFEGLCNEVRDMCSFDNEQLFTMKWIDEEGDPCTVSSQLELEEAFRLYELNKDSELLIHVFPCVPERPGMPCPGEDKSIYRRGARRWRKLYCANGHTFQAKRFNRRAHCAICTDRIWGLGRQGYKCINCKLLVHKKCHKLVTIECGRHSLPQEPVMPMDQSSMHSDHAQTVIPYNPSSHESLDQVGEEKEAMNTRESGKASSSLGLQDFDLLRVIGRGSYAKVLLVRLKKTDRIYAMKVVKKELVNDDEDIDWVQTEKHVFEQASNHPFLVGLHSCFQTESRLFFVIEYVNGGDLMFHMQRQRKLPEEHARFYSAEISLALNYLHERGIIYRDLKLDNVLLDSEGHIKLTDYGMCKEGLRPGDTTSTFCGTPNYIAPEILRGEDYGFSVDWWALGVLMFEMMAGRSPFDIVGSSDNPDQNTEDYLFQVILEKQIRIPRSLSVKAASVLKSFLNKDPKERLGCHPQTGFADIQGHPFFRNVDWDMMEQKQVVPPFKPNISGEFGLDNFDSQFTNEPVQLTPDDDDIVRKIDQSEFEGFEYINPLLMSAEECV

[17] = target: Death-associated protein kinase 1 (Homo sapiens) (UniProt P53355); test: Inhibition of DAPK1 (unknown origin) at 0.45 uM relative to control
[18] = target: Leukocyte tyrosine kinase receptor (Homo sapiens) (UniProt P29376); test: Inhibition of LTK (unknown origin) at 0.45 uM relative to control
[19] = target: MAP kinase-interacting serine/threonine-protein kinase 2 (Homo sapiens) (UniProt Q9HBH9); test: Inhibition of MNK2 (unknown origin) at 0.19 uM relative to control
[20] = target: RAF proto-oncogene serine/threonine-protein kinase (Homo sapiens) (UniProt P04049); test: Inhibition of c-Raf (unknown origin) at 0.19 uM relative to control
[21] = target: Inhibitor of nuclear factor kappa-B kinase subunit beta (Homo sapiens) (UniProt O14920); test: Inhibition of IKK-beta (unknown origin) at 0.19 uM relative to control
[22] = target: Maternal embryonic leucine zipper kinase (Homo sapiens) (UniProt Q14680); test: Inhibition of MELK (unknown origin) at 0.19 uM relative to control
[23] = target: Casein kinase I isoform delta (Homo sapiens) (UniProt P48730); test: Inhibition of CK1-delta (unknown origin) at 0.19 uM relative to control
[24] = target: Ephrin type-A receptor 8 (Homo sapiens) (UniProt P29322); test: Inhibition of EPHA8 (unknown origin) at 0.19 uM relative to control
[25] = target: Tyrosine-protein kinase Mer (Homo sapiens) (UniProt Q12866); test: Inhibition of Mer (unknown origin) at 0.19 uM relative to control
[26] = target: Protein kinase C alpha type (Homo sapiens) (UniProt P17252); test: Inhibition of PKC-alpha (unknown origin) at 0.19 uM relative to control
[27] = system: Tyrosine-protein kinase ABL1 (Homo sapiens), P00519 [E255K]; test: Inhibition of ABL1 E255K mutant (unknown origin) at 0.19 uM relative to control

COC(=O)Nc1cc(-c2c(C3CC3)n[nH]c2C)cc2[nH]ncc12
inhibition [1]: 5.7% | inhibition [2]: 0.3% | inhibition [3]: 8% | inhibition [4]: 7% | inhibition [5]: 4.7% | inhibition [6]: 4.7% | inhibition [7]: 2% | inhibition [8]: 1% | inhibition [9]: 0.7% | inhibition [10]: 6.3% | inhibition [11]: 3.7% | inhibition [12]: 2.7% | inhibition [13]: 10% | inhibition [14]: 5% | inhibition [15]: 6.7%

Cc1n[nH]c(C)c1-c1ccc2c(NC(=O)c3ccc(N4CCN(C)CC4)cc3)n[nH]c2c1
inhibition [16]: -6.7% | inhibition [17]: -1.3% | inhibition [18]: 0%

Cc1[nH]nc(C2CC2)c1-c1ccc2c(-c3ccc(N4CCN(C)CC4)nc3)n[nH]c2c1
inhibition [19]: 0% | inhibition [20]: 4.7% | inhibition [21]: 8% | inhibition [22]: 51% | inhibition [23]: 0% | inhibition [24]: 9.3% | inhibition [25]: -4% | inhibition [26]: -1.7% | inhibition [27]: 64.7%
